Assay results: PubChem BioAssay (NCI)
Where “and” joins values, the source holds several entries; their conditions need not be identical. Equal values may be shown once.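 A five-concentration, 48-hour dose response in 96-well plates underlies each endpoint, interpolated linearly between surrounding concentrations. GI50 = concentration required for 50% inhibition of growth. TGI denotes the concentration required for complete inhibition of growth.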

Tests used:
Assay in all cases: growth of human tumour cells (NCI), 48 h
[1] = tested on: OVCAR-8 ovarian
[2] = tested on: U251 CNS
[3] = tested on: SNB-78 CNS
[4] = tested on: SNB-19 CNS
[5] = tested on: HCC-2998 colon
[6] = tested on: HCT-15 colon
[7] = tested on: M19-MEL melanoma
[8] = tested on: OVCAR-4 ovarian
[9] = tested on: 786-0 renal
[10] = tested on: HS 578T breast

SMILES | TGI [1] | TGI [2] | TGI [3] | TGI [4] | TGI [5] | TGI [6] | TGI [7] | TGI [8] | TGI [9] | GI50 [2] | TGI [10] | GI50 [6] | GI50 [9] | GI50 [1] | GI50 [3] | GI50 [4] | GI50 [10] | GI50 [5] | GI50 [7] | GI50 [8]
CC1(C)CC(=O)C(/C(=N/NC(=S)NN)C(=O)Nc2nc3ccc([N+](=O)[O-])cc3s2)C(=O)C1 | > 100 µM | > 100 µM | > 100 µM | > 100 µM | > 100 µM | > 100 µM | > 100 µM | > 100 µM | > 100 µM |  |  |  |  |  |  |  |  |  |  | 
CC(C)(Br)C(=O)C(Br)Br | 14.9 µM and 9.13 µM | > 44.7 µM and 33.3 µM | 13.9 µM | 33.9 µM and 59.4 µM | 30.8 µM | > 21.9 µM and 9.57 µM | 16.1 µM | 10.9 µM and 9.91 µM | 26.9 µM and 8.99 µM | 9.65 µM | 19.9 µM | 4.88 µM | 4.85 µM |  |  |  |  |  |  | 
NC(=O)NNC(=O)NC12CC3CC(CC(C3)C1)C2 | > 100 µM | > 100 µM | > 100 µM | > 100 µM | > 100 µM | > 100 µM | > 100 µM | > 100 µM | > 100 µM |  |  |  |  |  |  |  |  |  |  | 
O=C(O)/C=C/c1nc2ccccc2c(=O)o1 | > 100 µM | > 100 µM | > 100 µM | > 100 µM | > 100 µM | > 100 µM | > 100 µM | > 100 µM | > 100 µM |  |  |  |  |  |  |  |  |  |  | 
Cc1cc(C)nc(NS(=O)(=O)c2ccc(Nc3c4ccccc4nc4c(C(=O)Nc5ccc(S(=O)(=O)N=C(N)N)cc5)cccc34)cc2)n1 | > 100 µM | > 100 µM | > 100 µM | > 100 µM | > 100 µM | > 100 µM | > 100 µM | > 100 µM | > 100 µM |  |  |  |  |  |  |  |  |  |  | 
O=C(CCC1C(=O)NC(=S)NC1=O)c1ccc2ccccc2c1 | > 100 µM | > 100 µM | > 100 µM | > 100 µM | > 100 µM | > 100 µM | > 100 µM | > 100 µM | > 100 µM |  |  |  |  |  |  |  |  |  |  | 
CC(C)=CC(=O)N(C)C1C2CN3CCC(O2)C13 (stereo not given) | > 100 µM | > 100 µM | > 100 µM | > 100 µM | > 100 µM | > 100 µM | > 100 µM | > 100 µM | > 100 µM |  |  |  |  |  |  |  |  |  |  | 
C[N+](C)(C)CC1CCCC1=O (stereo not given) | 4.99 µM | 29.3 µM | 9.86 µM | 50.8 µM | 29.9 µM | 7.44 µM | 5.52 µM | 1.8 µM | 5.32 µM |  | 16.6 µM |  |  |  |  |  |  |  |  | 
CCC1(O)C(=O)OCc2c1cc1n(c2=O)Cc2cc3c(NC(=O)CN)cccc3nc2-1 (stereo not given) | 30.2 µM | 12.1 µM | > 100 µM | > 100 µM | 25.6 µM | > 100 µM | 14.1 µM | 36.7 µM | 2.48 µM | 0.16 µM | > 100 µM | 5.22 µM | 0.194 µM | 0.557 µM | 8.13 µM | 0.492 µM | 28.9 µM | 5.07 µM | 1.38 µM | 7.53 µM
COC1C(N)C(OC2C(Oc3cccc4c(O)c5c(=O)oc6ccc(C)c7c(=O)oc(c34)c5c67)OC(C)C(O)C2(C)O)OC(C)C1O (stereo not given) | 0.212 µM | 0.789 µM | 0.302 µM | 0.469 µM | 0.336 µM | 7.55 µM | 0.458 µM | 2.28 µM | 0.36 µM |  | 0.886 µM |  |  |  |  |  |  |  |  | 
O=C(c1nc2ccccc2[nH]c1=O)C(O)c1ccccc1 (stereo not given) | > 100 µM | > 100 µM | > 100 µM | > 100 µM | > 100 µM | > 100 µM | > 100 µM | > 100 µM | > 100 µM |  |  |  |  |  |  |  |  |  |  | 
CC(=O)OCCOCNC(=S)N/N=C/c1cc(Br)cs1 | > 100 µM | > 100 µM | > 100 µM | > 100 µM | > 100 µM | > 100 µM | > 100 µM | > 100 µM | > 100 µM |  |  |  |  |  |  |  |  |  |  | 
